Data from patent publication US20160287549A1, “NOVEL METHODS FOR TREATING NEURODEGENERATIVE DISEASES” (GENZYME CORPORATION, priority 2013, published 2016).

How the values were obtained:
L1210 murine leukemia = settings: cited from earlier work
[1] = tested on: murine colon 38 tumor model; settings: tissue-specific modulation of uridine nucleotide pools; cited from earlier work
SOD1-G93A mice [2] = test: Survival of symptomatic SOD1-G93A ALS mice; type: in vivo
Experimental: SOD1-G93A transgenic mice (also known as G93A-SOD1 mice) are currently the best available model to test experimental therapeutics for the treatment of ALS. […] For example, the transgenic mice present with progressive muscular atrophy and weakness. Neuroinflammation, demyelination, and motor neuron death are observed in the mice, and ultimately, the mice become paralyzed and have a shortened lifespan.
To evaluate the effectiveness of DHODH inhibitors in treating ALS, 10 mg/kg of teriflunomide was administered by oral gavage to 82 day old SOD1-G93A male mice.
(§1) In a second experiment, 20 mg/kg of teriflunomide was administered to 82 day old SOD1-G93A male and female mice (n=14/sex).
Male SOD1-G93A mice (n=14) were administered W19 (subcutaneous injection at 10 mg/kg for 5 consecutive days and then every 10 mg/kg every 2 weeks thereafter) was administered starting at 82 days of age. After 7 days, peripheral blood was collected and lymphocyte depletion was evaluated using flow cytometry.
Transgenic male (n=84) and female littermate (n=28) mice that express the mutant SOD1^G93A transgene at high-levels were divided to achieve cohort, sibling and sex matching amongst groups for these studies (Scott, S., et al. “Design, Power, and Interpretation of Studies in the Standard Murine Model of ALS.” Amyotrophic Lateral Sclerosis 9.1 (2008): 4-15. SCOPUS. Web. 18 Nov. 2013). Mutant SOD1 gene copy number and SOD1 protein expression were confirmed by PCR and western blot analysis. Animals were housed under light:dark (12:12 h) cycle and provided with food and water ad libitum. All procedures were performed using protocols approved by Genzyme Corporation's Institutional Animal Care and Use Committees.
Mice were scored into the following phases: presymptomatic (Pre-SYMP)=no visible motor abnormalities (i.e., normal hind limb splay); Symptomatic (SYMP)=abnormal hindlimb splay; End stage (ES)=onset of limb paralysis (typically hindlimb); and Moribund (MB)=unable to right themselves within 30 sec after being placed on their back.

SOD1-G93A mice [3] = test: Grip strength performance test in SOD1-G93A mice; type: in vivo; settings: for grip strength loss (percent decline from baseline): 20 mg/kg oral gavage, baseline at 82 days, control 46.14-67.38% loss
Experimental: as §1
Testing of motor function using a grip strength device (Columbus Instruments, Columbus, Ohio) began at 60-70 days of age as previously described (Dodge, J. C. et al. (2008) 16:1056-1064). Each weekly session consisted of 4 tests per animal. Data shown represent percent decline in strength from baseline. Baseline measurements were made at 82 days of age. Percent reduction is grip strength is shown for vehicle treated mice scored as ES and age matched sibling mice treated with teriflunomide.

[4] = cited from earlier work
PfDHODH = PfDHODH (Plasmodium falciparum, UniProt Q08210); settings: cited from earlier work
hDHODH = hDHODH (Homo sapiens, UniProt Q02127); settings: cited from earlier work
Sequence of hDHODH (Q02127 whole entry): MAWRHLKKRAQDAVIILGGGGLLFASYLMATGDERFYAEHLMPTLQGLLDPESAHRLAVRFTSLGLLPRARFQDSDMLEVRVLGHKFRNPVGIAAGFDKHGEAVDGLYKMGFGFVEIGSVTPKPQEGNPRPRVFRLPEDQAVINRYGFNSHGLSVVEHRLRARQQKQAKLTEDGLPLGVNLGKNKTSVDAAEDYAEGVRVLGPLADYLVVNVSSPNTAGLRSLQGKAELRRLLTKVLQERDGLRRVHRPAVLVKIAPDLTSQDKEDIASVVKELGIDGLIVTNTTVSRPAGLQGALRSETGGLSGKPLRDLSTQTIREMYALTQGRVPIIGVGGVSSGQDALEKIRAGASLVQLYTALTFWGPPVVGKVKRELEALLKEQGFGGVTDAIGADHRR

Sequence of PfDHODH (Q08210 24-569): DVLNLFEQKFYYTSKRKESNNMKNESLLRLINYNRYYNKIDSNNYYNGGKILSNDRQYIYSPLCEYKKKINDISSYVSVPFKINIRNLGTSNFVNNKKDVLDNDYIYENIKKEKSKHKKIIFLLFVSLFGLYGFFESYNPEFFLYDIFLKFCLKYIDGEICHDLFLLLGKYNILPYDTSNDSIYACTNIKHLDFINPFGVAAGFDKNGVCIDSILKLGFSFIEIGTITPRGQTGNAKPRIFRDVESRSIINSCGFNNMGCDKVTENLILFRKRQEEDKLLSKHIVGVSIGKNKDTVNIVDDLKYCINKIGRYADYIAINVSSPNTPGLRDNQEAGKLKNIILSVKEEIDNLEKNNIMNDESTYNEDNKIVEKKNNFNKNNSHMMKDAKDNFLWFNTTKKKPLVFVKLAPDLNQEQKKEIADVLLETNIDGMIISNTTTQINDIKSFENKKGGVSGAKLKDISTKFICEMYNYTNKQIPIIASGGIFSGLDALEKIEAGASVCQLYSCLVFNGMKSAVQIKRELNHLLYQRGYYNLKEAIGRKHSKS

Cc1c(-c2ccc(-c3ccccc3F)cc2)nc2ccc(F)cc2c1C(=O)O [Brequinar]
anticancer activity (L1210 murine leukemia): exhibits anticancer activity | effect on 5-fluorouracil antitumor activity [1]: potentiates 5-fluorouracil antitumor activity

C/C(O)=C(\C#N)C(=O)Nc1ccc(C(F)(F)F)cc1 [teriflunomide, (Z)-2-cyano-3-hydroxy-but-2-enoic acid-(4′-trifluoromethylphenyl)-amide]
increase in survival as compared to control (SOD1-G93A mice [2]; 10 mg/kg oral gavage, 82 day old male SOD1-G93A mice): 7 days | median survival (SOD1-G93A mice [2]; 10 mg/kg oral gavage, 82 day old male SOD1-G93A mice, control 127 days, p<0.005): 134 days | median survival (SOD1-G93A mice [2]; 20 mg/kg oral gavage, 82 day old male and female SOD1-G93A mice, control 130 days, p<0.04): 146.5 days | increase in median survival as compared to control (SOD1-G93A mice [2]; 20 mg/kg, 82 day old male and female SOD1-G93A mice): 16.5 days | grip strength loss (percent decline from baseline) (SOD1-G93A mice [3]; female SOD1-G93A mice): −24.06% | grip strength loss (percent decline from baseline) (SOD1-G93A mice [3]; male SOD1-G93A mice): −20.14% | effect on muscle strength loss (SOD1-G93A mice [3]; 20 mg/kg, male and female SOD1-G93A mice): significantly slowed muscle strength loss | solubility in acetone ([4]; acetone): sparingly soluble | solubility in ethanol ([4]; ethanol): slightly soluble | solubility in isopropanol ([4]; isopropanol): very slightly soluble | solubility in polyethylene glycol ([4]; polyethylene glycol): slightly soluble | solubility in water ([4]; water): practically insoluble

CCOC(=O)C(=CNc1ccc(C(=O)OCC)cc1)C(=O)OCC [Compound 59]
PfDHODH(50 μM) (PfDHODH): 15 ± 4 | hDHODH(50 μM) (hDHODH): 4 ± 2

CCOC(=O)C(C#N)=CNc1ccc(C(=O)OCC)cc1 [Compound 60]
PfDHODH(50 μM) (PfDHODH): 2 ± 4 | hDHODH(50 μM) (hDHODH): 2 ± 2

CCOC(=O)C(=CNc1cccc(C(=O)OCC)c1)C(=O)OCC [Compound 58]
PfDHODH(50 μM) (PfDHODH): 0 ± 4 | hDHODH(50 μM) (hDHODH): 5 ± 2
